From ChEMBL document CHEMBL3045033, “Synthesis of new potential anticancer agents based on 4-thiazolidinone and oleanane scaffolds” (Med Chem Res, 2012)
“And” between values parts separate entries of the source, which are not always exact repeats. Equal values may be shown once.

What was measured:
Format in all cases: functional
[1] = test system: SNB-19; experiment: Cytotoxicity against Homo sapiens (human) SNB19 cells at 10^-4 to 10^-8 M after 48 hr by SRB assay; conditions: SNB-19, 48 h, read-out: pTGI (converted)
[2] = test system: SF-295; experiment: Cytotoxicity against Homo sapiens (human) SF295 cells at 10^-4 to 10^-8 M after 48 hr by SRB assay; conditions: SF-295, 48 h, read-out: pTGI (converted)
[3] = test system: SF-539; experiment: Cytotoxicity against Homo sapiens (human) SF539 cells at 10^-4 to 10^-8 M after 48 hr by SRB assay; conditions: SF-539, 48 h, read-out: pTGI (converted)
[4] = test system: SF-268; experiment: Cytotoxicity against Homo sapiens (human) SF268 cells at 10^-4 to 10^-8 M after 48 hr by SRB assay; conditions: SF-268, 48 h, read-out: pTGI (converted)
[5] = test system: HCT-116; experiment: Cytotoxicity against Homo sapiens (human) HCT116 cells at 10^-4 to 10^-8 M after 48 hr by SRB assay; conditions: HCT-116, 48 h, read-out: pTGI (converted)
[6] = test system: COLO 205; experiment: Cytotoxicity against Homo sapiens (human) COLO205 cells at 10^-4 to 10^-8 M after 48 hr by SRB assay; conditions: COLO 205, 48 h, read-out: pTGI (converted)
[7] = test system: NCI-H460; experiment: Cytotoxicity against Homo sapiens (human) NCI-H460 cells at 10^-4 to 10^-8 M after 48 hr by SRB assay; conditions: NCI-H460, 48 h, read-out: pTGI (converted)
[8] = test system: NCI-H226; experiment: Cytotoxicity against Homo sapiens (human) NCI-H226 cells at 10^-4 to 10^-8 M after 48 hr by SRB assay; conditions: NCI-H226, 48 h, read-out: pTGI (converted)
[9] = test system: HOP-92; experiment: Cytotoxicity against Homo sapiens (human) HOP92 cells at 10^-4 to 10^-8 M after 48 hr by SRB assay; conditions: HOP-92, 48 h, read-out: pTGI (converted)
[10] = test system: EKVX; experiment: Cytotoxicity against Homo sapiens (human) EKVX cells at 10^-4 to 10^-8 M after 48 hr by SRB assay; conditions: read-out: pTGI (converted)
[11] = test system: A549; experiment: Cytotoxicity against Homo sapiens (human) A549 cells at 10^-4 to 10^-8 M after 48 hr by SRB assay; conditions: A549, 48 h, read-out: pTGI (converted)
[12] = test system: CCRF-CEM; experiment: Cytotoxicity against Homo sapiens (human) CCRF-CEM cells at 10^-4 to 10^-8 M after 48 hr by SRB assay; conditions: read-out: pTGI (converted)
[13] = test system: DU-145; experiment: Cytotoxicity against Homo sapiens (human) DU145 cells after 48 hr by SRB assay
[14] = test system: ACHN; experiment: Cytotoxicity against Homo sapiens (human) ACHN cells after 48 hr by SRB assay
[15] = Cytotoxicity against Homo sapiens (human) NCI-ADR-RES cells after 48 hr by SRB assay
[16] = test system: OVCAR-3; experiment: Cytotoxicity against Homo sapiens (human) OVCAR3 cells after 48 hr by SRB assay
[17] = test system: SK-MEL-5; experiment: Cytotoxicity against Homo sapiens (human) SK-MEL-5 cells after 48 hr by SRB assay
[18] = test system: SR; experiment: Cytotoxicity against Homo sapiens (human) SR cells assessed as cellular growth at 10^-5 M after 48 hr by SRB assay relative to untreated control
[19] = test system: BT-549; experiment: Cytotoxicity against Homo sapiens (human) BT549 cells at 10^-4 to 10^-8 M after 48 hr by SRB assay; conditions: BT-549, 48 h, read-out: pTGI (converted)
[20] = test system: MCF7; experiment: Cytotoxicity against Homo sapiens (human) MCF7 cells at 10^-4 to 10^-8 M after 48 hr by SRB assay; conditions: MCF7, 48 h, read-out: pTGI (converted)
[21] = test system: MDA-MB-231; experiment: Cytotoxicity against Homo sapiens (human) MDA-MB-231 cells at 10^-4 to 10^-8 M after 48 hr by SRB assay; conditions: MDA-MB-231, 48 h, read-out: pTGI (converted)
[22] = test system: PC-3; experiment: Cytotoxicity against Homo sapiens (human) PC3 cells at 10^-4 to 10^-8 M after 48 hr by SRB assay; conditions: PC-3, 48 h, read-out: pTGI (converted)
[23] = test system: SN12C; experiment: Cytotoxicity against Homo sapiens (human) SN12C cells at 10^-4 to 10^-8 M after 48 hr by SRB assay; conditions: read-out: pTGI (converted)
[24] = test system: TK-10; experiment: Cytotoxicity against Homo sapiens (human) TK10 cells at 10^-4 to 10^-8 M after 48 hr by SRB assay; conditions: TK-10, 48 h, read-out: pTGI (converted)
[25] = test system: UO-31; experiment: Cytotoxicity against Homo sapiens (human) UO31 cells at 10^-4 to 10^-8 M after 48 hr by SRB assay; conditions: UO-31, 48 h, read-out: pTGI (converted)
[26] = test system: SK-OV-3; experiment: Cytotoxicity against Homo sapiens (human) SKOV3 cells at 10^-4 to 10^-8 M after 48 hr by SRB assay; conditions: SK-OV-3, 48 h, read-out: pTGI (converted)
[27] = test system: OVCAR-5; experiment: Cytotoxicity against Homo sapiens (human) OVCAR5 cells at 10^-4 to 10^-8 M after 48 hr by SRB assay; conditions: OVCAR-5, 48 h, read-out: pTGI (converted)
[28] = test system: OVCAR-8; experiment: Cytotoxicity against Homo sapiens (human) OVCAR8 cells at 10^-4 to 10^-8 M after 48 hr by SRB assay; conditions: OVCAR-8, 48 h, read-out: pTGI (converted)
[29] = Cytotoxicity against Homo sapiens (human) NCI-ADR-RES cells at 10^-4 to 10^-8 M after 48 hr by SRB assay; conditions: read-out: pTGI (converted)
[30] = test system: UACC-62; experiment: Cytotoxicity against Homo sapiens (human) UACC62 cells at 10^-4 to 10^-8 M after 48 hr by SRB assay; conditions: UACC-62, 48 h, read-out: pTGI (converted)
[31] = test system: SK-MEL-2; experiment: Cytotoxicity against Homo sapiens (human) SK-MEL-2 cells at 10^-4 to 10^-8 M after 48 hr by SRB assay; conditions: SK-MEL-2, 48 h, read-out: pTGI (converted)
[32] = test system: SNB-75; experiment: Cytotoxicity against Homo sapiens (human) SNB75 cells at 10^-4 to 10^-8 M after 48 hr by SRB assay; conditions: SNB-75, 48 h, read-out: pTGI (converted)
[33] = test system: M14; experiment: Cytotoxicity against Homo sapiens (human) M14 cells after 48 hr by SRB assay
[34] = test system: SNB-19; experiment: Cytotoxicity against Homo sapiens (human) SNB19 cells after 48 hr by SRB assay
[35] = test system: HOP-62; experiment: Cytotoxicity against Homo sapiens (human) HOP62 cells after 48 hr by SRB assay
[36] = test system: CCRF-CEM; experiment: Cytotoxicity against Homo sapiens (human) CCRF-CEM cells after 48 hr by SRB assay
[37] = Homo sapiens, NCI/ADR-RES, 48 h

Row | Compound | TGI [1] | TGI [2] | TGI [3] | TGI [4] | TGI [5] | TGI [6] | TGI [7] | TGI [8] | TGI [9] | TGI [10] | TGI [11] | TGI [12] | Activity [18] | TGI [19] | TGI [20] | TGI [21] | TGI [22] | TGI [23] | TGI [24] | TGI [25] | other results
1 | COC(=O)[C@]12CCC(C)(C)C[C@H]1C1=CC[C@@H]3[C@@]4(C)CC/C(=N\O)C(C)(C)[C@@H]4CC[C@@]3(C)[C@]1(C)CC2 | 69.2 µM | 37.2 µM | 41.7 µM | 56.2 µM | 56.2 µM | 57.5 µM | 51.3 µM | 66.1 µM | 39.8 µM | 72.4 µM | > 100 µM | 81.3 µM | -41.06% | > 100 µM | 40.7 µM | 40.7 µM | 44.7 µM | 42.7 µM | 97.7 µM | 45.7 µM | GI50 ([13]; Homo sapiens, DU-145, 48 h): 20.4 µM; GI50 ([14]; Homo sapiens, ACHN, 48 h): 20.9 µM; GI50 [15, 37]: 37.2 µM; GI50 ([16]; Homo sapiens, OVCAR-3, 48 h): 18.6 µM; GI50 ([17]; Homo sapiens, SK-MEL-5, 48 h): 21.4 µM; TGI [26]: > 100 µM; TGI [27]: 55 µM; TGI [28]: > 100 µM; TGI [29]: > 100 µM; TGI [30]: 56.2 µM; TGI [31]: > 100 µM; TGI [32]: 38.9 µM; GI50 ([33]; Homo sapiens, M14, 48 h): 23.4 µM; GI50 ([34]; Homo sapiens, SNB-19, 48 h): 25.7 µM; GI50 ([35]; Homo sapiens, HOP-62, 48 h): 21.4 µM; GI50 [36]: 28.2 µM
2 | CC1(C)CC[C@@]23CC[C@]4(C)[C@@](OC2=O)([C@@H]3C1)[C@@H](Br)C[C@@H]1[C@@]2(C)CC/C(=N\O)C(C)(C)[C@@H]2CC[C@]14C | > 100 µM | 36.3 µM | > 100 µM | > 100 µM | > 100 µM | > 100 µM | > 100 µM | > 100 µM | 46.8 µM | > 100 µM | > 100 µM | > 100 µM | -62.66% | 69.2 µM | 60.3 µM | 47.9 µM | > 100 µM | > 100 µM | 52.5 µM | > 100 µM | GI50 ([13]; Homo sapiens, DU-145, 48 h): 14.1 µM; GI50 ([14]; Homo sapiens, ACHN, 48 h): 53.7 µM; GI50 [15, 37]: 26.9 µM; GI50 ([16]; Homo sapiens, OVCAR-3, 48 h): 11.5 µM; GI50 ([17]; Homo sapiens, SK-MEL-5, 48 h): 26.3 µM; TGI [26]: > 100 µM; TGI [27]: > 100 µM; TGI [28]: 53.7 µM; TGI [29]: > 100 µM; TGI [30]: > 100 µM; TGI [31]: > 100 µM; TGI [32]: 60.3 µM; GI50 ([33]; Homo sapiens, M14, 48 h): 9.12 µM; GI50 ([34]; Homo sapiens, SNB-19, 48 h): 53.7 µM; GI50 ([35]; Homo sapiens, HOP-62, 48 h): 40.7 µM; GI50 [36]: 17.4 µM
3 | COC(=O)[C@]12CCC(C)(C)C[C@H]1C1=CC[C@@H]3[C@@]4(C)CC/C(=N\OC(=O)/C=C5/SC(=O)NC5=O)C(C)(C)[C@@H]4CC[C@@]3(C)[C@]1(C)CC2 | 26.3 µM | 20.9 µM | 3.63 µM | 10.7 µM | 3.39 µM | 5.37 µM | 9.55 µM | 30.9 µM | 4.68 µM | 22.4 µM | 17.8 µM | 7.76 µM | -22.69% | 9.12 µM | 10.7 µM | 7.59 µM | 14.1 µM | 18.6 µM | 8.13 µM | 2.95 µM | GI50 [13]: 42.7 µM and 5.13 µM; GI50 [14]: 1.74 µM and 6.61 µM; GI50 [15]: 61.7 µM and 7.59 µM; GI50 [16]: 6.31 µM and 1.91 µM; GI50 [17]: 43.7 µM and 5.25 µM; TGI [26]: 34.7 µM; TGI [27]: 33.9 µM; TGI [28]: 15.1 µM; TGI [29]: 22.9 µM; TGI [30]: 10.2 µM; TGI [31]: 17.8 µM; TGI [32]: 22.9 µM; GI50 [33]: ≥ 20 µM; GI50 [34]: 56.2 µM and 12.3 µM; GI50 [35]: 64.6 µM and 20 µM; GI50 [36]: 2.45 µM; LC50 [36]: 37.2 µM
